Values quoted from earlier work as cited in patent US8101207B2, “Composition containing medicine extremely slightly soluble in water and method for preparation thereof” (Kowa Co., Ltd., priority 2003, dated 2012).

What was measured:
[1] = tested on: interleukin-1β; conditions: known from Japanese Patent Application Laid-Open (kokai) No. 12-198776

For `CSc1ccc(-c2nn(Cc3ccccc3)c(=O)cc2-c2ccc(Cl)cc2)cc1` [Compound A, 2-benzyl-5-(4-chlorophenyl)-6-[4-(methylthio)phenyl]-2H-pyridazin-3-one], the solubility in water is given as “very low solubility” and the “effect of inhibiting production of interleukin-1β” value [1] is given as “excellent effect”.
